Source: patent publication US5324648A, “Substituted isocoumarins as serine protease inhibitors and anti-inflammatory agents” (Georgia Tech Research Corporation, priority 1992, dated 1994)

Experiments:
human factor Xa = target: T1, human factor Xa (Homo sapiens, UniProt P00742); experiment: Inactivation rate of human factor Xa; type: biochemical; details: Table VIII; pH 7.5, 25° C; [I] 3.6-44 μM; read-out: kobs/[I]
T1 construct: human factor Xa
Protocol: (§1) Inactivation rates of serine proteases by substituted isocoumarins were measured by the incubation method. An aliquot of inhibitor (25 or 50 μl) in Me2 SO was added to a buffered enzyme solution (0.01-2.3 μM) to initiate the inactivation. Aliquots (50 μl) were withdrawn at various intervals and the residual enzymatic activity was measured. Me2 SO concentration in the reaction mixture was 8-12% (v/v). 0.1 Hepes, 0.01M CaCl2, pH 7.5 buffer was utilized for trypsin and coagulation enzymes. 0.1M Hepes, 0.5M NaCl, pH 7.5 was utilized for other serine proteases. The inhibitor concentrations are shown in all the tables. Peptide thioesters or peptide nitroanilides with appropriate sequence were used as substrates for various serine proteases. All peptide thioester hydrolysis rates were measured with assay mixtures containing 4,4'-dithiodipyridine (ε324 =19800M^-1 cm^-1; Grasetti & Murray, Arch. Biochem. Biophys. 119, pp 41-49 (1967)). Peptide 4-nitroanilide nitroanilide hydrolysis was measured at 410 nm (ε410 =8800M^-1 cm^-1; Erlanger et al., Arch. Biochem. Biophys. 95, pp 271-278 (1961)). First order inactivation rate constant (kobs) were obtained from plots of ln (vt /vo) vs time, and the correlation coefficients were greater than 0.98.
(§2) ^a Conditions were as 0.1M Hepes, 0.01M CaCl2, pH 7.5 and 8-12%
(§3) Me2 SO and 25° C. Rate constants were measured by incubation
(§4) method unless otherwise noted. An aliquot of inhibitor was added to an
(§5) enzyme solution and aliquots removed with time and assayed for remaining
(§6) enzymatic activity. Firstorder rate constants, kobs were obtained
(§7) from the plots of ln(vt /vo) versus time.
(§8) ^a Inhibition rates were measured in 0.1M Hepes, 0.01M CaCl2, pH
(§9) 7.5 buffer, 8% Me2 SO and at 25° C.

bovine thrombin = target: T2, bovine thrombin (Bos taurus, UniProt P00735); experiment: Inactivation rate of bovine thrombin; type: biochemical; details: Table VIII; pH 7.5, 25° C; [I] 1.2-54 μM; read-out: kobs/[I]
T2 construct: bovine thrombin
Protocol: as §1, §2, §3, §4, §5, §6, §7, §8, §9

human thrombin = target: T3, human thrombin (Homo sapiens, UniProt P00734); experiment: Inactivation rate of human thrombin; type: biochemical; details: Table VIII; pH 7.5, 25° C; [I] 1.2-54 μM; read-out: kobs/[I]
T3 construct: human thrombin
Protocol: as §1, §8, §9

[1] = target: recombinant human tissue plasminogen activator (Homo sapiens, UniProt P00750); experiment: Inactivation rate of recombinant human tissue plasminogen activator; type: biochemical
recombinant human tissue plasminogen activator, sequence (P00750 36-562): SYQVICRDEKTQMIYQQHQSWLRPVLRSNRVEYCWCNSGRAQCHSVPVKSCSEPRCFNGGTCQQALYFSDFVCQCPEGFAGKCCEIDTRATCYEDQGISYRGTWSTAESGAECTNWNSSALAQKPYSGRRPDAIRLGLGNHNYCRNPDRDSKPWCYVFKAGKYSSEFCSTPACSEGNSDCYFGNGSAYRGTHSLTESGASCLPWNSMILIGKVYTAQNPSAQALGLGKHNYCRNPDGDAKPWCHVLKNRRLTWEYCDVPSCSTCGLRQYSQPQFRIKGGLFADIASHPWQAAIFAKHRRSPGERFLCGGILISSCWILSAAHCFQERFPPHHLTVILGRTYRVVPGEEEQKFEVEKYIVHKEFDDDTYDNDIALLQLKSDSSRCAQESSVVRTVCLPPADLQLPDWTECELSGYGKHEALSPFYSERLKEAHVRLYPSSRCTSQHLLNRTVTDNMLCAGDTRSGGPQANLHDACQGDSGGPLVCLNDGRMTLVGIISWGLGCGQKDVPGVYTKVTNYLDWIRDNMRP
Protocol: as §1
^a Inactivation constants were measured at 0.1M Hepes, 0.5M NaCl (or
as §8
(§10) 7.5 buffer for human plasmin; 25 mM Phosphate, 0.5M NaCl, 1 mM EDTA, pH
(§11) 7.5 buffer for rat skin tryptase and 0.1M Hepes, 0.5M NaCl, pH 7.5 for
(§12) human lung tryptase, human skin tryptase and rt-PA. All enzymes were
(§13) assayed with ZArg-SBzl (0.07 mM) in the presence of 4,4dithiodipyridine
(§14) (0.33 mM). Reaction mixtures contained 8% Me2 SO and assays were […]

chymotrypsin = chymotrypsin (Bos taurus, UniProt P00766); experiment: Inactivation of chymotrypsin; type: biochemical, bovine; details: Table X; pH 7.5, 25° C; [I] 0.9-43 μM; read-out: kobs/[I]
rat skin tryptase = target: T4, rat skin tryptase (Rattus norvegicus, UniProt P27435); experiment: Inactivation rate of rat skin tryptase; type: biochemical; details: pH 7.5, Table IX; pH 7.5, 25° C; [I] 0.42-0.51 μM; read-out: kobs/[I]
T4 construct: from tissue; host or cells: rat skin
T4 sequence (P27435 29-273): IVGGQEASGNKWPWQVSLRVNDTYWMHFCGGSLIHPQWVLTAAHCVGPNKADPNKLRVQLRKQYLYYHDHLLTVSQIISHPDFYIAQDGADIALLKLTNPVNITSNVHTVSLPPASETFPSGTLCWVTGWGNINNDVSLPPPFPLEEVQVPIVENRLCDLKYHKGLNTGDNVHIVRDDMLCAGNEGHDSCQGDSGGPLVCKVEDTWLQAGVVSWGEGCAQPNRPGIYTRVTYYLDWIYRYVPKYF
Protocol: as §1
^b Inactivation rates were measured at 25 mM phosphate, 0.5M NaCl, 1
mM EDTA, pH 7.5 buffer, 9% Me2 SO and 25° C.
as §8, §10, §11, §12, §13, §14

human factor XIIa = target: T5, human factor XIIa (Homo sapiens, UniProt P00748); experiment: Inactivation rate of human factor XIIa; type: biochemical; details: Table VIII; pH 7.5, 25° C; [I] 3.6-4.9 μM; read-out: kobs/[I]
T5 construct: human factor XIIa
T5 sequence (P00748 373-615 limits assumed): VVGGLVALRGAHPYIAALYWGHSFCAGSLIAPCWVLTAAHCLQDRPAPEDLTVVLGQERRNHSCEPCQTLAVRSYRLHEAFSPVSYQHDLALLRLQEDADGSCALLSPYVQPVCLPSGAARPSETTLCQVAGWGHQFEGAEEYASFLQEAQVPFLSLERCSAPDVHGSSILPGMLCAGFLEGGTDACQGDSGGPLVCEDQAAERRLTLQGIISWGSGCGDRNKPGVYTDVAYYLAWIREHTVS
T5 sequence (P00748 20-372 partner limits assumed): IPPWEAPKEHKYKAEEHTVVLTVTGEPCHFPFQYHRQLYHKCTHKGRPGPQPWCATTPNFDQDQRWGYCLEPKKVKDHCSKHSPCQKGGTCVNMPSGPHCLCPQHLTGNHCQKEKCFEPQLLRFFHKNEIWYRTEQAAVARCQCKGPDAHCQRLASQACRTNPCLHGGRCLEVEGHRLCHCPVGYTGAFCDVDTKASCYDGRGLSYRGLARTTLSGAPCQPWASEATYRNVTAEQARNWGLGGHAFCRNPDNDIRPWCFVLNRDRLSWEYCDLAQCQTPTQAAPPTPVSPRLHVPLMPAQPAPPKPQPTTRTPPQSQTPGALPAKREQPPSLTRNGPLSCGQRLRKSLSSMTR
Protocol: as §1, §2, §3, §4, §5, §6, §7, §8, §9

human lung tryptase = experiment: Inactivation rate of human lung tryptase; type: biochemical; details: Table IX; pH 7.5, 25° C; [I] 0.42-0.47 μM
Protocol: as §1
^a Inactivation rates were measured at 0.1M Hepes, 0.5M NaCl, pH 7.5
buffer, 8% Me2 SO and 25° C.
as §8, §10, §11, §12, §13, §14

cathepsin G = target: T6, cathepsin G (Homo sapiens, UniProt P08311); experiment: Inactivation of cathepsin G; type: biochemical; details: Table X; pH 7.5, 25° C; [I] 33-46 μM; read-out: kobs/[I]
T6 construct: from tissue; host or cells: human leukocytes
T6 sequence (P08311 21-255): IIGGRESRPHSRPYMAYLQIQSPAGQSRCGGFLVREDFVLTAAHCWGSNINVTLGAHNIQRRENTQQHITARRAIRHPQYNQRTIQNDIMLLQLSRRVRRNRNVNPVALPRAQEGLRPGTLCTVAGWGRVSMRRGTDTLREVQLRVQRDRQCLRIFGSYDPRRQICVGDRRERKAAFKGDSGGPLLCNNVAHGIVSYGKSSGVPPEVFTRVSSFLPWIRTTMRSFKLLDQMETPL

T1 sequence (P00742 235-488 limits assumed): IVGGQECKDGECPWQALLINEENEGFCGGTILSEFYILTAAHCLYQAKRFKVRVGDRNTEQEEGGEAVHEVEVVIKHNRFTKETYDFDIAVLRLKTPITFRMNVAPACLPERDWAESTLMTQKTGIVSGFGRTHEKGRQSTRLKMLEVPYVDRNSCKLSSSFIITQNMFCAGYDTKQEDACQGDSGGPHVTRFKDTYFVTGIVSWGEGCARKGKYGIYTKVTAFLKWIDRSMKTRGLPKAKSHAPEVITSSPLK
T1 sequence (P00742 41-179 partner limits assumed): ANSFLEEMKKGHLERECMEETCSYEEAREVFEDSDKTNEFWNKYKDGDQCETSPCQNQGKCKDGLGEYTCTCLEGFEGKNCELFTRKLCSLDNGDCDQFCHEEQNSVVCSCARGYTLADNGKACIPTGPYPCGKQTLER

CC(C)(C)OC(=O)N[C@@H](Cc1ccccc1)C(=O)Nc1ccc2c(Cl)c(OCCSC(=N)N)oc(=O)c2c1 [Boc-L-Phe--NH-CiTEtOIC, 7-(N-t-butyloxycarbonyl-L-phenylalanylamino)-4-chloro-3-(2-isothiureidoethoxy)isocoumarin]
kinact/KI (human factor Xa): 1620 M⁻¹ s⁻¹ | kinact/KI (bovine thrombin): 1090 M⁻¹ s⁻¹ | kinact/KI (human thrombin): 1140 M⁻¹ s⁻¹

N=C(N)SCCOc1oc(=O)c2cc(NC(=O)[C@@H](N)Cc3ccccc3)ccc2c1Cl [L-Phe--NH-CiTEtOIC, 7-(L-phenylalanylamino)-4-chloro-3-(2-isothiureidoethoxy)isocoumarin]
kinact/KI (human factor Xa): 3770 M⁻¹ s⁻¹ | kinact/KI ([1]; pH 7.5, Table IX, pH 7.5, 25° C, [I] 3.5-5.0 μM, read-out: kobs/[I]): 13000 M⁻¹ s⁻¹ | kinact/KI (bovine thrombin): 1280 M⁻¹ s⁻¹ | kinact/KI (chymotrypsin): 8400 M⁻¹ s⁻¹ | kinact/KI (rat skin tryptase): 650000 M⁻¹ s⁻¹ | kinact/KI (human factor XIIa): 107000 M⁻¹ s⁻¹ | kobs/[I] (human lung tryptase): 260,000 M^-1 s^-1 | kinact/KI (human thrombin): 1340 M⁻¹ s⁻¹ | kinact/KI (cathepsin G): 53 M⁻¹ s⁻¹

N=C(N)SCCOc1oc(=O)c2cc(NC(=O)Cc3ccccc3)ccc2c1Cl [PhCH2 CONH-CiTEtOIC, 7-(phenylacetylamino)-4-chloro-3-(2-isothiureidoethoxy)isocoumarin]
kinact/KI (human factor Xa): 3630 M⁻¹ s⁻¹ | percentage of inhibition ([1]; Table IX, not time dependent, at 0.34-5.0 μM): 64% | kinact/KI (bovine thrombin): 15800 M⁻¹ s⁻¹ | kinact/KI (rat skin tryptase): 120000 M⁻¹ s⁻¹ | kinact/KI (human factor XIIa): 59000 M⁻¹ s⁻¹ | kobs/[I] (human lung tryptase): 110,000 M^-1 s^-1 | kinact/KI (human thrombin): 6730 M⁻¹ s⁻¹
